# Measured values published in patent publication US20120220461A1, “CRYSTAL FORMS OF SULFONYLUREA COMPOUND AND METHOD FOR PRODUCING THE SAME” (NISSAN CHEMICAL INDUSTRIES, LTD., priority 2009, published 2012).
# Experiment: Change of crystal form by heating, friction or suspension in a solvent
# Type: physicochemical
# Source text: In the present invention, for the discrimination of the crystal form, a powder X-ray diffraction measurement, a differential thermal analysis, ^13C CP/TOSS NMR, a Raman spectroscopy, and the like are effective, however, the method for the discrimination is not limited to these measurement methods.
# • Apparatus: MXLabo (manufactured by Mac Science Corporation (present: Bruker AXS, Inc.)) • Ray source: Cu • Wavelength: 1.54056A • Goniometer: vertical-type goniometer • Tube voltage: 40.0 kV • Tube current: 30 mA • Measuring method: continuous method • Data range: 3.0400 to 40.0000 deg • Scanning axis: 2θ/θ • Sampling interval: 0.0400 deg • Scanning rate: 3.600 deg/min. • Emission slit: 1.00 deg • Scattering slit: 1.00 deg • Receiving slit: 0.15 mm • RSM: 0.80 mm
# • Apparatus: TG 8120 (manufactured by Rigaku Corporation) • Temperature elevation: 20° C. to 300° C. at an elevation rate of 5° C./min • Atmosphere: Air • Reference: Al2O3 • Vessel: Al vessel • Sampling: 1 sec
smiles,measurement,setting,value
"COc1cc(OC)nc(NC(=O)NS(=O)(=O)c2c(C3=NOCC(C)O3)c(Cl)nn2C)n1 (stereo not shown) [crystal form A, 3-chloro-N-(4,6-dimethoxypyrimidine-2-ylcarbamoyl)-1-methyl-4-(5-methyl-5,6-dihydro-1,4,2-dioxazine-3-yl)-1H-pyrazole-5-sulfonamide]",change of crystal form by heating or friction,,not observed
"COc1cc(OC)nc(NC(=O)NS(=O)(=O)c2c(C3=NOCC(C)O3)c(Cl)nn2C)n1 (stereo not shown) [crystal form B, 3-chloro-N-(4,6-dimethoxypyrimidine-2-ylcarbamoyl)-1-methyl-4-(5-methyl-5,6-dihydro-1,4,2-dioxazine-3-yl)-1H-pyrazole-5-sulfonamide]",change of crystal form by heating,,not observed
same,change of crystal form on suspending in a solvent and stirring,"suspended in a solvent, stirred",transits to be converted into the crystal form A
"COc1cc(OC)nc(NC(=O)NS(=O)(=O)c2c(C3=NOCC(C)O3)c(Cl)nn2C)n1 (stereo not shown) [crystal form C, 3-chloro-N-(4,6-dimethoxypyrimidine-2-ylcarbamoyl)-1-methyl-4-(5-methyl-5,6-dihydro-1,4,2-dioxazine-3-yl)-1H-pyrazole-5-sulfonamide]",change of crystal form by heating or friction,,transits to the crystal form A or B
"COc1cc(OC)nc(NC(=O)NS(=O)(=O)c2c(C3=NOCC(C)O3)c(Cl)nn2C)n1 (stereo not shown) [crystal form D, 3-chloro-N-(4,6-dimethoxypyrimidine-2-ylcarbamoyl)-1-methyl-4-(5-methyl-5,6-dihydro-1,4,2-dioxazine-3-yl)-1H-pyrazole-5-sulfonamide]",change of crystal form by heating,,transits to the crystal form A
"COc1cc(OC)nc(NC(=O)NS(=O)(=O)c2c(C3=NOCC(C)O3)c(Cl)nn2C)n1 (stereo not shown) [crystal form E, 3-chloro-N-(4,6-dimethoxypyrimidine-2-ylearbamoyl)-1-methyl-4-(5-methyl-5,6-dihydro-1,4,2-dioxazine-3-yl)-1H-pyrazole-5-sulfonamide]",change of crystal form by heating or friction,,transits to the crystal form A
"COc1cc(OC)nc(NC(=O)NS(=O)(=O)c2c(C3=NOCC(C)O3)c(Cl)nn2C)n1 (stereo not shown) [crystal form F, 3-chloro-N-(4,6-dimethoxypyrimidine-2-ylcarbamoyl)-1-methyl-4-(5-methyl-5,6-dihydro-1,4,2-dioxazine-3-yl)-1H-pyrazole-5-sulfonamide]",change of crystal form by heating or friction,,transits to the crystal form A
